In the experiment the test system is Wister rats. The experiment is described as follows: Confirmation of pharmacological activity: blood glucose level of rats after subcutaneous injection. The format is in vivo, rat. The following applies: 1.6 U/kg, 15, 30, 60 and 120 minutes after injection. The protocol: After anesthetic, Nembutal, was injected to Wister rats (male, 8 week-old, weight: about 250 g) fasted for one day, blood was taken from the tail vein. This is used as a base (control). […] The resultant liquid droplets were collected and subcutaneously injected into the rats in a dose of 1.6 U/kg. Blood was taken from the tail vein 15, 30, 60 and 120 minutes after the injection. The blood samples thus taken were centrifugally separated and the blood glucose levels of the obtained serums were analyzed (one group consisting of 6 rats). The same experiment was performed by using an insulin solution having no additives and not ejected in accordance with the thermal inkjet system as a Comparative Example.

Turning to “insulin: insulin solution having no additives and not ejected in accordance with the thermal inkjet system (Comparative Example of Example 25)”, the “effect in reducing blood glucose level” value was “swiftly decreased”.

For the origin of these results see US8833363B2, “Ejection liquid, ejection method, method for forming liquid droplets, liquid ejection cartridge and ejection apparatus” (Canon Kabushiki Kaisha, priority 2004, dated 2014).
